Assay results published in patent US7601746B2 (Shionogi & Co., Ltd., priority 2003, dated 2009).

Biological target: T1, human TPO receptor (hTPOR) (Homo sapiens, UniProt P40238)
T1 construct: expressed in transfected cells; host or cells: BaF-B03 (murine IL-3 dependent cell line)
T1 sequence (P40238 26-635): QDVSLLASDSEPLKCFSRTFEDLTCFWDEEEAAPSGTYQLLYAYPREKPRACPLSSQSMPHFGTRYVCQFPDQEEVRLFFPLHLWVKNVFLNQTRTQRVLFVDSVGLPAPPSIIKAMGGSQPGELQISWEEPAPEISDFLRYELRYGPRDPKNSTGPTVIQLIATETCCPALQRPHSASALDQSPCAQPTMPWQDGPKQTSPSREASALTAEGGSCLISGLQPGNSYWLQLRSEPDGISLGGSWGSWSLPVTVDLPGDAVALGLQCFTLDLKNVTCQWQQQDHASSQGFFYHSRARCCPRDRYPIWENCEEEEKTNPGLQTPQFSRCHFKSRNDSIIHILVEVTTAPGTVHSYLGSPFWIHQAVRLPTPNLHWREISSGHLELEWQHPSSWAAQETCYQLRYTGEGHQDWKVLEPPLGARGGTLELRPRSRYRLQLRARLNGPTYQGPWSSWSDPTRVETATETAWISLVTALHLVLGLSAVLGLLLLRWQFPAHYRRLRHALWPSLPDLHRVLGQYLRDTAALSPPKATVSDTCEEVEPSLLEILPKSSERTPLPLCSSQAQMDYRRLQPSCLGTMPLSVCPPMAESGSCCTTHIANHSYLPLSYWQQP
Assay: Thrombopoietic activity: proliferation of TPO dependent BaF/hTPOR cells (WST-1, absorbance at 450 nm)
Type: cell-based
Conditions: 20 h + 4 h WST-1, ED50 = half concentration of the concentration showing the maximum thrombopoietic activity
In short: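 Proliferation read-out: WST-1 absorbance at 450 nm after 20 h compound exposure plus 4 h reagent, using IL-3-deprived BaF/hTPOR cells (5×10^4 per well) dependent on human TPO receptor signalling. ED50 defined as half the concentration producing maximal activity.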

| SMILES | EC50 (Table 1) | EC50 (Table 2) |
| --- | --- | --- |
| COc1c(CCOCCC(C)C)cccc1-c1csc(NC(=O)c2cc(Cl)c(/C=C(\C)C(=O)O)c(Cl)c2)n1 [Compound B1955] | 11.7 nM |  |
| CO/C(=C\c1c(F)cc(C(=O)Nc2nc(-c3cccc(CCOCCC(C)C)c3OC)cs2)cc1F)C(=O)O [Compound B1956] | 15.1 nM |  |
| COc1c(CCOCC2CCCCC2)cccc1-c1csc(NC(=O)c2cc(F)c(/C=C(\C)C(=O)O)c(F)c2)n1 [Compound B1957] | 12.8 nM |  |
| CCC(CC)COCCc1cccc(-c2csc(NC(=O)c3cc(Cl)c(/C=C(\C)C(=O)O)c(Cl)c3)n2)c1OC [Compound B1958, (E)-3-[2,6-dichloro-4-(4-{3-[2-(2-ethylbutyloxy)ethyl]-2-methyloxyphenyl}thiazol-2-ylcarbamoyl)phenyl]-2-methylacrylic acid] | 7.57 nM |  |
| CCC(CC)COCCc1cccc(-c2csc(NC(=O)c3cc(F)c(/C=C(\C)C(=O)O)c(F)c3)n2)c1OC [Compound B1959, (E)-3-[4-(4-{3-[2-(2-ethylbutyloxy)ethyl]-2-methyloxyphenyl}thiazol-2-ylcarbamoyl)-2,6-difluorophenyl]-2-methylacrylic acid] | 11.3 nM |  |
| CCC(CC)COCCc1cccc(-c2csc(NC(=O)c3cc(Cl)c(/C=C(\OC)C(=O)O)c(Cl)c3)n2)c1OC [Compound B1960, (Z)-3-[2,6-dicholoro-4-(4-{3-[2-(2-ethylbutyloxy)ethyl]-2-methyloxyphenyl}thiazol-2-ylcarbamoyl)phenyl]-2-methyloxyacrylic acid] | 10.1 nM |  |
| COc1c(CCOCCCCCl)cccc1-c1csc(NC(=O)c2cc(Cl)c(/C=C(\C)C(=O)O)c(Cl)c2)n1 [Compound B1963, (E)-3-[2,6-dichloro-4-(4-{3-[2-(4-chlorobutyloxy)ethyl]-2-methyloxyphenyl}thiazol-2-ylcarbamoyl)phenyl]-2-methylacrylic acid] |  | 28.6 nM |
| CCCCCCCOCc1cccc(-c2csc(NC(=O)c3cc(F)c(/C=C(\C)C(=O)O)c(F)c3)n2)c1OC [Compound B1990, (E)-3-{2,6-difluoro-4-[4-(3-heptyloxymethyl-2-methyloxyphenyl)thiazol-2-ylcarbamoyl]phenyl}-2-methylacrylic acid] | 12.1 nM |  |
| CCCCCCCOCc1cccc(-c2csc(NC(=O)c3cc(Cl)c(/C=C(\C)C(=O)O)c(Cl)c3)n2)c1OC [Compound B1991, (E)-3-{2,6-dichloro-4-[4-(3-heptyloxymethyl-2-methyloxyphenyl)thiazol-2-ylcarbamoyl]phenyl}-2-methylacrylic acid] | 13.2 nM |  |
| CCCCCCOCc1cccc(-c2csc(NC(=O)c3cc(F)c(/C=C(\C)C(=O)O)c(F)c3)n2)c1OC [Compound B1992, (E)-3-{2,6-difluoro-4-[4-(3-hexyloxymethyl-2-methyloxyphenyl)thiazol-2-ylcarbamoyl]phenyl}-2-methylacrylic acid] | 13.1 nM |  |
| CCCCCCOCc1cccc(-c2csc(NC(=O)c3cc(Cl)c(/C=C(\C)C(=O)O)c(Cl)c3)n2)c1OC [Compound B1993, (E)-3-{2,6-dichloro-4-[4-(3-hexyloxymethyl-2-methyloxyphenyl)thiazol-2-ylcarbamoyl]phenyl}-2-methylacrylic acid] | 13.9 nM |  |
| CCCCCCOCc1cccc(-c2csc(NC(=O)c3cc(Cl)c(/C=C(\OC)C(=O)O)c(Cl)c3)n2)c1OC [Compound B1994, (Z)-3-{2,6-dichloro-4-[4-(3-hexyloxymethyl-2-methyloxyphenyl)thiazol-2-ylcarbamoyl]phenyl}-2-methyloxyacrylic acid] | 14.2 nM |  |
| CCCCOCc1cccc(-c2csc(NC(=O)c3cc(Cl)c(/C=C(\C)C(=O)O)c(Cl)c3)n2)c1OC [Compound B1995, (E)-3-{4-[4-(3-butyloxymethyl-2-methyloxyphenyl)thiazol-2-ylcarbamoyl]-2,6-dichlorophenyl}-2-methylacrylic acid] | 10.9 nM |  |
| CCCCOCc1cccc(-c2csc(NC(=O)c3cc(F)c(/C=C(\C)C(=O)O)c(F)c3)n2)c1OC [Compound B1997, (E)-3-{4-[4-(3-butyloxymethyl-2-methyloxyphenyl)thiazol-2-ylcarbamoyl]-2,6-difluorophenyl}-2-methylacrylic acid] | 15.5 nM |  |
| CCCCCCCOc1cccc(-c2csc(NC(=O)c3cc(F)c(/C=C(\C)C(=O)O)c(F)c3)n2)c1OC [Compound B1998, (E)-3-{2,6-difluoro-4-[4-(3-heptyloxy-2-methyloxyphenyl)thiazol-2-ylcarbamoyl]phenyl}-2-methylacrylic acid] | 8.35 nM |  |
| CCCCCCCOc1cccc(-c2csc(NC(=O)c3cc(Cl)c(/C=C(\C)C(=O)O)c(Cl)c3)n2)c1OC [Compound B1999, (E)-3-{2,6-dichloro-4-[4-(3-heptyloxy-2-methyloxyphenyl)thiazol-2-ylcarbamoyl]phenyl}-2-methylacrylic acid] | 13.2 nM |  |
| CCCCCCCOc1cccc(-c2csc(NC(=O)c3cc(F)c(/C=C(\OC)C(=O)O)c(F)c3)n2)c1OC [Compound B2000, (Z)-3-{2,6-difluoro-4-[4-(3-heptyloxy-2-methyloxyphenyl)thiazol-2-ylcarbamoyl]phenyl}-2-methyloxyacrylic acid] |  | 20.5 nM |
| CCCCCCCOc1cccc(-c2csc(NC(=O)c3cc(Cl)c(/C=C(\OC)C(=O)O)c(Cl)c3)n2)c1OC [Compound B2001, (Z)-3-{2,6-dichloro-4-[4-(3-heptyloxy-2-methyloxyphenyl)thiazol-2-ylcarbamoyl]phenyl}-2-methyloxyacrylic acid] | 19.4 nM |  |
| COc1c(CCOCCCCF)cccc1-c1csc(NC(=O)c2cc(Cl)c(/C=C(\C)C(=O)O)c(Cl)c2)n1 [Compound B2003, (E)-3-[2,6-dichloro-4-(4-{3-[2-(4-fluorobutyloxy)ethyl]-2-methyloxyphenyl}thiazol-2-ylcarbamoyl)phenyl]-2-methylacrylic acid] |  | 22.7 nM |
| CCCCCCCCOc1cccc(-c2csc(NC(=O)c3cc(F)c(/C=C(\C)C(=O)O)c(F)c3)n2)c1OC [Compound B2004, (E)-3-{2,6-difluoro-4-[4-(2-methyloxy-3-octyloxyphenyl)thiazol-2-ylcarbamoyl]phenyl}-2-methylacrylic acid] | 13.9 nM |  |
| CCCCCCCCOc1cccc(-c2csc(NC(=O)c3cc(Cl)c(/C=C(\C)C(=O)O)c(Cl)c3)n2)c1OC [Compound B2005, (E)-3-{2,6-dichloro-4-[4-(2-methyloxy-3-octyloxyphenyl)thiazol-2-ylcarbamoyl]phenyl}-2-methylacrylic acid] | 10.3 nM |  |
| CO/C(=C\c1c(F)cc(C(=O)Nc2nc(-c3cccc(C(CCOC(C)C)OC)c3F)cs2)cc1F)C(=O)O (stereo not shown) [Compound B2012, (Z)-3-(2,6-difluoro-4-{4-[2-fluoro-3-(3-isopropyloxy-1-methyloxypropyl)phenyl]thiazol-2-ylcarbamoyl}phenyl)-2-methyloxyacrylic acid] |  | 24.2 nM |
| COc1cccc(-c2csc(NC(=O)c3cc(Cl)c(/C=C(\C)C(=O)O)c(Cl)c3)n2)c1F [Compound B2018, (E)-3-{2,6-dichloro-4-[4-(2-fluoro-3-methyloxyphenyl)thiazol-2-ylcarbamoyl]phenyl}-2-methylacrylic acid] |  | 23.5 nM |
| COc1c(COCC(C)(C)C)cccc1-c1csc(NC(=O)c2cc(Cl)c(/C=C(\C)C(=O)O)c(Cl)c2)n1 [Compound B2021, (E)-3-(2,6-dichloro-4-{4-[3-(2,2-dimethylpropyloxymethyl)-2-methyloxyphenyl]thiazol-2-ylcarbamoyl}phenyl)-2-methylacrylic acid] | 6.09 nM |  |
| CO/C(=C\c1c(Cl)cc(C(=O)Nc2nc(-c3cccc(COCC(C)(C)C)c3OC)cs2)cc1Cl)C(=O)O [Compound B2022, (Z)-3-(2,6-dichloro-4-{4-[3-(2,2-dimethylpropyloxymethyl)-2-methyloxyphenyl]thiazol-2-ylcarbamoyl}phenyl)-2-methyloxyacrylic acid] | 15.6 nM |  |
| CCC(CC)COCc1cccc(-c2csc(NC(=O)c3cc(F)c(/C=C(\C)C(=O)O)c(F)c3)n2)c1OC [Compound B2023, (E)-3-(4-{4-[3-(2-ethylbutyloxymethyl)-2-methyloxyphenyl]thiazol-2-ylcarbamoyl}-2,6-difluorophenyl)-2-methyl acrylic acid] | 6.45 nM |  |
| CCC(CC)COCc1cccc(-c2csc(NC(=O)c3cc(F)c(/C=C(\OC)C(=O)O)c(F)c3)n2)c1OC [Compound B2024, (Z)-3-(4-{4-[3-(2-ethylbutyloxymethyl)-2-methyloxyphenyl]thiazol-2-ylcarbamoyl}-2,6-difluorophenyl)-2-methyloxyacrylic acid] | 9.96 nM |  |
| CCC(CC)COCc1cccc(-c2csc(NC(=O)c3cc(Cl)c(/C=C(\C)C(=O)O)c(Cl)c3)n2)c1OC [Compound B2025, (E)-3-(2,6-dichloro-4-{4-[3-(2-ethylbutyloxymethyl)-2-methyloxyphenyl]thiazol-2-ylcarbamoyl}phenyl)-2-methylacrylic acid] | 3.2 nM |  |
